In patent US11572344B2, “Cyanoaryl-aniline compounds for treatment of dermal disorders” (NFlection Therapeutics, Inc., priority 2018, dated 2023):

How the values were obtained:
[1] = biological target: T1, MEK1 (Homo sapiens (Human), UniProt Q02750); experiment: MEK Inhibition Assay-1 (33P-ATP, P81 filter-binding); conditions: assay of Example 38; read-out: Assay 1: biochemical MEK IC50
Procedure: The following procedure can be used to measure biochemical activity. MEK1 inhibitory activity of compounds were tested using the following procedure. […] Nat Biotechnol. 2011, 29(11), 1039-45.
• Reaction buffer: 20 mM Hepes (pH 7.5), 10 mM MgCl2, 1 mM EGTA, 0.02% Brij35, 0.02 mg/mL BSA, 0.1 mM Na3VO4, 2 mM DTT, 1% DMSO • Enzyme: MEK1, Invitrogen cat #PV3303 • N-terminal His-tagged recombinant human full length protein, expressed in insect cells. Activated in vitro by RAF1. MW=49.2 kDa, GenBank Accession No. NP_002746. • Substrate: 5 μM ERK2 (K52R), • Kinase-dead mutant, (GenBank Accession No. NM_0011949), aa2-358 with N-terminal His6 tag, MW=43.63 kDa, expressed in E. coli.
The substrate was prepared in freshly prepared Reaction Buffer. The kinase was delivered into the substrate solution and gently mixed. Test compounds were delivered in 100% DMSO into the kinase reaction mixture by Acoustic technology (Echo550; nanolitter range), and incubated for 20 min at room temperature. ^33P-ATP was delivered into the reaction mixture to initiate the reaction. The reaction mixture was incubated for 2 hours at room temperature. Kinase activity was detected by P81 filter-binding method.
Assay 1 is the biochemical MEK IC50 (nM) assay as described in Example 38.

[2] = biological target: T1, MEK1; experiment: MEK Inhibition Assay-2 (Z′-LYTE biochemical assay); conditions: Z′-LYTE assay of Example 39; read-out: IC50 against MEK1
Procedure: MEK1 inhibitory activity of compounds were tested using the following procedure (protocol available at thermofisher.com/content/dam/LifeTech/migration/files/drug-discovery/pdfs.par.60256.file.dat/20130430%20ssbk %20customer %20protocol %20and %20assa y %20conditions.pdf). The Z′-LYTE biochemical assay (ThermoFisher) employs a fluorescence-based, coupled-enzyme format and is based on the differential sensitivity of phosphorylated and non-phosphorylated peptides to proteolytic cleavage.
Test compounds in 100% DMSO were screened in 1% DMSO (final) in the well. For 10 point titrations, 3-fold serial dilutions are conducted from the starting concentration of 30 μM.
After the 1 hour incubation, 5 μL of a 1:1024 dilution of Development Reagent A (available from Invitrogen, catalog no. PV3295) was added.
ATP solutions were diluted to a 4× working concentration in Kinase Buffer (50 mM HEPES pH 7.5, 0.01% BRIJ-35, 10 mM MgCl2, 1 mM EGTA). ATP Km apparent was previously determined using a Z′-LYTE assay. The Development Reagent was diluted in Development Buffer (available from Invitrogen, catalog no. P3127).
Assay Protocol: 2.5 μL of 4× test compound or 100 nL of 100× Test Compound plus 2.4 μL Kinase Buffer, 5 μL of the 2× Peptide/Kinase Mixture, 2.5 μL of 4×ATP Solution were added to the plates and placed on a shake plate for 30-seconds. The kinase reaction was allowed to proceed for 60-minute at room temperature, before 5 μL of Development Reagent Solution was added, and the mixture agitated for 30-seconds on a shake plate. The mixture was incubated for 60-minute at room temperature. Fluorescence was measured using a plate reader and the data were analyzed.
This control yielded 100% cleaved peptide in the Development Reaction. The 100% Phosphorylation Control, which consisted of a synthetically phosphorylated peptide of the same sequence as the peptide substrate, was designed to allow for the calculation of percent phosphorylation. This control yielded a very low percentage of cleaved peptide in the Development Reaction. The 0% Phosphorylation and 100% Phosphorylation Controls allow for the calculation of the percent phosphorylation achieved in a specific reaction well.
The minimum emission ratio in a screen was established by the 0% Inhibition Control, which contained active kinase. This control was designed to produce a 10-50% phosphorylated peptide in the Kinase Reaction. Cascade assays may produce up to 70% phosphorylated peptide.
A known inhibitor control standard curve, 10 point titration, was run for each individual kinase on the same plate as the kinase to ensure the kinase was inhibited within an expected IC50 range previously determined.
The following controls are prepared for each concentration of Test Compound assayed. […] The expected value for a non-interfering compound should be 100%. Any value outside of 90% to 110% was flagged. […] The expected value for a non-fluorescence compound should be 0%. Any value>20% was flagged.
The data in Table A was calculated. XLfit from IDBS was used. The dose response curve was curve fit to model number 205 (sigmoidal dose-response model).
Table 3 lists the MEK1 inhibition assay results of selected compounds according to the above procedure.

[3] = Liver S9 half-life stability assay; format: in vitro ADME; conditions: human, liver S9 fraction, pH 7.4; 1 μM test compound, 2 mg/mL liver protein, 1 mM NADPH; read-out: Assay 4: liver S9 half-life
Procedure: Compounds can be assessed for metabolic stability in human skin by assessing their rate of disappearance from human S9 skin fraction. Similarly, compounds can be assessed for metabolic stability in human liver by assessing their rate of disappearance from human S9 liver fraction. The protocol below is used to assess the difference between skin and hepatic metabolism.
The assay was carried out in 96-well microtiter plates at 37° C. Reaction mixtures (25 μL) contained a final concentration of 1 μM test compound, 2 mg/mL liver or skin protein, and 1 mM NADPH in buffer (100 mM potassium phosphate, pH 7.4 buffer with 1 mM EDTA, 3 mM MgCl2). At each of the time points (0, 15, 30, and 60 minutes), 150 μL of quench solution (100% acetonitrile with 0.1% formic acid) with internal standard was transferred to each well. Besides the zero minute controls, mixtures containing the same components except the NADPH were also prepared as the negative control. Verapamil or testosterone was included as a positive control to verify assay performance. Plates were sealed and centrifuged at 4° C. for 15 minutes at 4000 rpm. The supernatant was transferred to fresh plates for LC/MS/MS analysis.
All samples were analyzed on LC/MS/MS using an AB Sciex API 4000 instrument, coupled to a Shimadzu LC-20AD LC Pump system. Analytical samples were separated using a Waters Atlantis T3 dC18 reverse phase HPLC column (20 mm×2.1 mm) at a flow rate of 0.5 mL/min. The mobile phase consisted of 0.1% formic acid in water (solvent A) and 0.1% formic acid in 100% acetonitrile (solvent B).
The extent of metabolism was calculated as the disappearance of the test compound, compared to the 0-min control reaction incubations. Initial rates were calculated for the compound concentration and used to determine t1/2 values and subsequently, the intrinsic clearance, CLint=(0.693) (1/t1/2 (min)) (mL incubation/mg of S9 protein).
Assay 4 is the liver S9 half-life stability assay as described in Example 42. A4 indicates a half life of greater than 50 min and less than or equal to 200 min and B4 indicates a half life of less than or equal to 50 minutes.

T1 sequence (Q02750 whole entry): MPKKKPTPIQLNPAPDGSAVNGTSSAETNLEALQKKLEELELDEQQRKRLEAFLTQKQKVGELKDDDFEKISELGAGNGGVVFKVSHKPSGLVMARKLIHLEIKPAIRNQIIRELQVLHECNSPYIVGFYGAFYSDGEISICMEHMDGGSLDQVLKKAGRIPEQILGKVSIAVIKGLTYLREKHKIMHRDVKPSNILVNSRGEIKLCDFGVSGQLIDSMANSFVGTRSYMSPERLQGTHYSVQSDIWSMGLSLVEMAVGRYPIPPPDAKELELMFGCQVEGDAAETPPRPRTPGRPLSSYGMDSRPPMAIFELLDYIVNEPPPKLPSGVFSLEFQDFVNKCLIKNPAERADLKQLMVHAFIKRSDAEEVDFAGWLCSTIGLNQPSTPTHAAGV

IC50 [1] [µM] | IC50 [2] [µM] | half-life at 1 μM [3] [min] | Structure (SMILES)
≤ 0.15 | ≤ 0.15 | 50 to 200 | N#Cc1ccc(C(=O)NOCCO)c(Nc2ccc(I)cc2F)c1 [Compound 1.010]
≤ 0.15 | ≤ 0.15 | 50 to 200 | N#Cc1ccc(C(=O)NOCCO)c(Nc2ccc(I)cc2F)c1F [Compound 1.030, 4-cyano-3-fluoro-2-((2-fluoro-4-iodophenyl)amino)-N-(2-hydroxyethoxy) benzamide]
≤ 0.15 | ≤ 0.15 | ≤ 50 | N#Cc1ccc(C(=O)NOCC2CC2)c(Nc2ccc(I)cc2F)c1F [Compound 1.031]
